Measurements published in patent US20250281649A1, “PROBE DIRECTED TO ENZYME ALDH1A3 AND USE THEREOF IN THE DIAGNOSIS OF GLIOBLASTOMA” (Universita' Degli Studi Del Piemonte Orientale "A. Avogadro", priority 2021, published 2025).

Key:
[1] = test system: human foetal astrocytes (hASTRO, ALDH1A1+); assay: Confocal fluorescence of probes in cell lines; type: cell-based; conditions: 10 μM to 100 nM
Protocol: (§1) All 3 enzymes belonging to the subfamily 1A of aldehyde dehydrogenases were expressed recombinantly in bacterial cells and purified to homogeneity. The pure enzymes were then used to study the interaction with the molecules according to the invention, using various in vitro biochemical assays. In particular, the affinity for the isoenzymes of the selected molecules was measured through the use of a TECAN SPARK and a TECAN SUNRISE. Fluorescence assays were performed in the presence of different protein concentrations and the activity assays were conducted by measuring NAD^+ consumption. According to their specific activity, all molecules were characterized by values of KD, KM, Ki and IC50, showing a net selectivity in specifically binding the ALDH1A3 enzyme. The probes having curcumin and recognizing the ALDH1A3 enzyme were tested in a cellular context, using four different cell lines classified by the presence or absence of the isoform studied: human glioblastoma line (U87MG, ALDH1A3 positive), embryonic kidney cell line (HEK293T, ALDH1A2 positive), human astrocyte line (hAstro, ALDH1A1 positive) and a breast cancer line (4T1, ALDHIA negative). […] The binding ability of the probes to these cell lines was also verified and confirmed by flow cytometry.
(§2) Human U87MG glioblastoma were used as ALDH1A3+ cell lines, HEK293T as ALDH1A2+ cell line, human foetal astrocytes (hASTRO) as ALDH1A1+ cell line and 4T1 mammary carcinoma as triple negative ALDHIA subfamily (checked with Western Blot analysis and RT-PCR). All these cell lines were incubated with Probe 14 and 13 at different concentrations (from 10 μM to 100 nM). At all these concentrations we observed a selectivity of probe 14 and 13 on U87MG cells after 2 h, that appeared to be cytoplasmic, no signal has been verified in HEK293T, hASTRO and 4T1 cell lines. Moreover, we incubated the two probes with cells and analyzed with FACS and we observed a significant positivity in U87MG cells, too.

[2] = test system: HEK293T (ALDH1A2+); assay: Confocal fluorescence of probes in cell lines; type: cell-based; conditions: 10 μM to 100 nM
Protocol: as §1, §2

[3] = test system: 4T1 mammary carcinoma (triple negative ALDH1A subfamily); assay: Confocal fluorescence of probes in cell lines; type: cell-based; conditions: 4T1, 10 μM to 100 nM
Protocol: as §1, §2

[4] = target: T1, ALDH1A3 (Homo sapiens, UniProt P47895); assay: Fluorescence of probes in buffer and in complex with the isoenzymes (Tecan SPARK); type: binding; conditions: in complex with the three isoenzymes, in particular ALDH1A3
T1 construct: His-tag; made in house; host or cells: bacterial cells
T1 sequence (P47895 1-512): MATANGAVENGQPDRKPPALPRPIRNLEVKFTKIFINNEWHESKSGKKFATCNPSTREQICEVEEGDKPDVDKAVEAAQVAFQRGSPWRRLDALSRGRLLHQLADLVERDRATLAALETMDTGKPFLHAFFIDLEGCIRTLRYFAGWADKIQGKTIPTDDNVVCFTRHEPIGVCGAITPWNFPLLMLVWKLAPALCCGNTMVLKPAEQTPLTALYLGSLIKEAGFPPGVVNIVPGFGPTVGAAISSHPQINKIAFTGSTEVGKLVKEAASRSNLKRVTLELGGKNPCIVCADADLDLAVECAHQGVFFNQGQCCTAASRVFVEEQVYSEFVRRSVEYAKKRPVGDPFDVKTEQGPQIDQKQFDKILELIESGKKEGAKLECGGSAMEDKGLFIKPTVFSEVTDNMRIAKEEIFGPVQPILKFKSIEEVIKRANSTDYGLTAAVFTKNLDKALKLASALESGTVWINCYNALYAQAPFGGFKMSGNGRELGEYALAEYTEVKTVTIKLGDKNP
Protocol: All five compounds were dissolved in DMSO (100%) to obtain two different initial stocks, one at 10 mM and a second one at 1 mM. […] The assay can be executed at a maximum DMSO percentage of 15%. The maximum probe concentration tested was 500 uM—15% DMSO. All the compounds were tested using a Tecan—SPARK, to analyze their absorbance, excitation and emission wavelength. Based on the literature, the absorbance of the curcumin by itself is comprised between 420 and 425 nm. At first, we measured the absorbance, and from those values, we performed a 3D analysis to highlights the correct Ex and Em wavelengths. To avoid any possible background in the fluorescence signal we performed a screening of every possible buffer used in our assays.

[5] = test system: GL261 cells; assay: Penetration into GL261 cells in vitro; type: cell-based, mouse
Text: We used in vitro and in vivo cells from a mouse high grade glioma cell line, GL261, Briefly, twenty-four 2- to 3-month-old female C57BIC mice were stereotactically implanted under deep general anesthesia (isoflurane supplemented with nitrous oxide) with 1×10^5 GL261 glioblastoma cells. The cells were stereotactically inoculated through a burr hole by a Hamilton syringe into the left striatum (coordinates: 1 mm anteroposterior and 1 mm lateral from bregma, at a depth of 3 mm). All experimental procedures were conducted in accordance with the European Communities Council Directive of 24 Nov. 1986 (86/609 EEC), Recommendation 18/06/2007, Dir. 2010/63/UE, and the Italian law for care and use of experimental animals (DL116/92) and were approved by the Italian Ministry of Health (prot. E669C.15) and the Bioethical Committee of the University of Turin. All animals were housed under a 12-hour light-dark cycle in an environmentally controlled room. All experiments were designed to minimize the numbers of animals used and their discomfort. In each experiment, animals with tumors were allocated to two groups and i.p. injected with probe 14 or probe 13. All drugs were administered intraperitoneally, and treatments were started days 6 after tumor implantation. […] Quantitative and phenotypic evaluations were made on images acquired with a Leica TCS SP5 confocal microscope.

| increase of fluorescence in complex with the isoenzymes [4] | SMILES | fluorescence signal in cells [1] | fluorescence signal in cells [2] | fluorescence signal in cells [3] | penetration into cells in vitro [5] |
| --- | --- | --- | --- | --- | --- |
| significant positive increment | COc1cc(/C=C/C(=O)/C=C(O)/C=C/c2ccc(OCc3cn(CCOc4ccc(C=O)cc4)nn3)c(OC)c2)ccc1O [Compound 13] | no signal | no signal | no signal |  |
| significant positive increment | CCOC(=O)Cn1cc(COc2ccc(/C=C/C(O)=C/C(=O)/C=C/c3ccc(O)c(OC)c3)cc2OC)nn1 [Compound 14] | no signal | no signal | no signal | penetrates GL261 cells in vitro |
